According to US20220395003A1, “Methods for Use in Food Processing and Preservation” (priority 2019, published 2022):

How the values were obtained:
[1] = test system: microbial growth on the surface of beef carcasses; assay: Microbiological analysis of beef carcass surface after treatment (Example 1)
Method: (§1) A 0.3% aqueous solution of chitosan formed as described above having 0.01% sodium sulfite and 0.1% acetic acid was poured into a commercial dry vapor steam cleaning unit and allowed to equilibrate for about 15 minutes. The steam was applied to a beef carcass by the method of […] as disclosed in U.S. Pat. No. 9,149,036 which is incorporated herein by reference in its entirety. For comparison, a beef carcass was sprayed with an aqueous solution of about 3% acetic acid by standard methods known in the art. Prior to applying the chitosan steam or the aqueous acetic acid solution, the beef carcasses were washed thoroughly with hot water. The beef carcasses were maintained at 4 degrees centigrade.

[2] = test system: microbial growth on the surface of beef carcass; assay: Microbiological analysis of low and high surface areas of beef carcass (Example 2)
Method: as §1, with “centigrade. Microbiological analysis was performed on the surface of the carcasses at pretreatment and at 1, 24, and 72 hours after treatment. […] The study in Example 1 was repeated, applying the previously-described 0.3% chitosan, acetic acid, and sodium sulfite solution on a low surface area and a high surface area of a beef carcass.” for “centigrade.”

`CC(=O)O` [Water wash + acetic acid, acetic acid] showed a microbial growth ([1]; Flank, 0 h (pretreatment), 4 degrees centigrade) of 2.60 log colony forming units, a microbial growth ([1]; Flank, 1 h after treatment) of 2.10 log colony forming units and a microbial growth ([1]; Flank, 24 h after treatment) of 2.10 log colony forming units. The microbial growth ([1]; Flank, 72 h after treatment) was 2.00 log colony forming units, the microbial growth ([1]; Loin, 0 h (pretreatment), 4 degrees centigrade) was 3.70 log colony forming units and the microbial growth ([1]; Loin, 1 h after treatment) was 2.40 log colony forming units. It also gave a microbial growth ([1]; Loin, 24 h after treatment) of 1.80 log colony forming units, a microbial growth ([1]; Loin, 72 h after treatment) of 2.00 log colony forming units and a microbial growth ([2]; High (A) surface, 1 h) of 1.59 log colony forming units. The microbial growth ([2]; High (A) surface, 48 h) was 1.35 log colony forming units, the microbial growth ([2]; High (A) surface, 168 h) was 1.49 log colony forming units and the microbial growth ([2]; High (B) surface, 1 h) was 2.03 log colony forming units. The microbial growth ([2]; High (B) surface, 48 h) was 1.80 log colony forming units, the microbial growth ([2]; High (B) surface, 168 h) was 1.77 log colony forming units and the microbial growth ([2]; High (C) surface, 1 h) was 1.88 log colony forming units. The microbial growth ([2]; High (C) surface, 48 h) was 1.65 log colony forming units, the microbial growth ([2]; High (C) surface, 168 h) was 1.43 log colony forming units and the microbial growth ([2]; Low (A) surface, 1 h) was 1.53 log colony forming units. For the same compound, the microbial growth ([2]; Low (A) surface, 48 h) was 1.09 log colony forming units, the microbial growth ([2]; Low (A) surface, 168 h) was 0.00 log colony forming units and the microbial growth ([2]; Low (B) surface, 1 h) was 1.73 log colony forming units. For the same compound, the microbial growth ([2]; Low (B) surface, 48 h) was 1.57 log colony forming units, the microbial growth ([2]; Low (B) surface, 168 h) was 1.45 log colony forming units and the microbial growth ([2]; Low (C) surface, 1 h) was 0.43 log colony forming units. For the same compound, the microbial growth ([2]; Low (C) surface, 48 h) was 0.94 log colony forming units and the microbial growth ([2]; Low (C) surface, 168 h) was 1.35 log colony forming units.
